The results in this text go back to patent publication US20250140406A1, “CLASSIFYING TUMORS AND PREDICTING RESPONSIVENESS” (Oncocyte Corporation, priority 2022, published 2025).

Structures are written as SMILES.

In one assay the test system is cancer cell lines classified IM, MSL, M. In words: PRISM screen compound sensitivity correlated with IM, MSL and M subtype of cell lines (101 gene signature). Format: cell-based.
Conditions: not given
Take `COCC(O)Cn1ccnc1[N+](=O)[O-]` (stereo not shown) [misonidazole]: the TNBCType train entry is reported as “MSL”.
On the same count and under the same terms, for `Cc1nc2n(c(=O)c1CCN1CCC(c3noc4cc(F)ccc34)CC1)CCCC2` [risperidone] the value was “MSL”.

The same assay, now with this note: subtype (IM, MSL or M) assigned to the compound by negative correlation of PRISM sensitivity with subtype; training cell set (371 cell lines), 101 gene signature.
For the compound `CCCOc1ccc(S(=O)(=O)N2CCN(CCO)CC2)cc1-c1nc2c(CCC)cn(CC)c2c(=O)[nH]1` [mirodenafil], the TNBCType train result was “MSL”.
As for `COc1cccc(C(=O)CCN[C@@H](C)[C@H](O)c2ccccc2)c1` [oxyfedrine], the TNBCType train result is given as “MSL”.
Still for that read-out and setting: for `CC[C@@H]1/C=C(\C)C[C@H](C)C[C@H](OC)[C@H]2O[C@@](O)(C(=O)C(=O)N3CCCC[C@H]3C(=O)O[C@H](/C(C)=C/[C@@H]3CC[C@H](Cl)[C@H](OC)C3)[C@H](C)[C@@H](O)CC1=O)[C@H](C)C[C@@H]2OC` [pimecrolimus] the value was “MSL”; for `O=C(O)C[C@H](O)C[C@H](O)/C=C/c1c(C2CC2)nc2ccccc2c1-c1ccc(F)cc1` [pitavastatin], “MSL”; for `C=Cc1cc(O)cc2nc(-c3ccc(O)c(F)c3)oc12` [prinaberel], “MSL”.
Same read-out and setting: for `CCn1nc(C)c2c1C(c1ccccc1)=NCC(=O)N2` [ripazepam] the value was “MSL”; for `O=C1C=CC[C@@H]2[C@H]3CCCN4CCC[C@@H](CN12)[C@@H]34` [sophocarpine], “MSL”; for `CC(=O)N1N=C(c2ccc(N)cc2)c2cc3c(cc2C[C@H]1C)OCO3` [talampanel], “MSL”.

Staying with this assay, now noted: subtype (IM, MSL or M) with which PRISM compound sensitivity is negatively correlated; training cell set, 101 gene signature.
On to `COC(=O)c1ccc2c(c1)NC(=O)/C2=C(\Nc1ccc(N(C)C(=O)CN2CCN(C)CC2)cc1)c1ccccc1` [nintedanib], for which the TNBCType train entry is “MSL”.
On the same count and under the same terms, for `CC(C)Oc1ccc(-c2nc(-c3cccc4c3CC[C@@H]4NCCO)no2)cc1C#N` [ozanimod] the value was “MSL”; for `Cc1cn2nc([C@@H]3CCCCN3C(=O)c3cc(Cl)ccc3NS(C)(=O)=O)cc2nc1N1CC[C@H](N)C1` [presatovir], “MSL”; for `Cc1ccc2c(-c3ccccc3)nc(=O)n(C(C)C)c2c1` [proquazone], “MSL”.
Take `O=C(N[C@H]1CN2CCC1CC2)c1cnc2ccsc2c1O` [pumosetrag]: the TNBCType train result was “MSL”.
The same measure, in the same setting: for `C[C@]12CC[C@H](O)C[C@H]1CC[C@@H]1[C@@H]2CC[C@]2(C)[C@@H](c3ccc(=O)oc3)C[C@H]3O[C@]132` [resibufogenin] the value was “MSL”; for `C[C@H]1CNCCCN1S(=O)(=O)c1cccc2cncc(F)c12` [ripasudil], “MSL”.
For `CC(C)N(CCCCOCC(=O)NS(C)(=O)=O)c1cnc(-c2ccccc2)c(-c2ccccc2)n1` [selexipag], the TNBCType train entry is “MSL”.
As for `CC[C@H]1OC(=O)[C@@](C)(F)C(=O)[C@H](C)[C@@H](O[C@@H]2O[C@H](C)C[C@H](N(C)C)[C@H]2O)[C@](C)(OC)C[C@@H](C)C(=O)[C@H](C)[C@H]2N(CCCCn3cc(-c4cccc(N)c4)nn3)C(=O)O[C@]12C` [solithromycin], the TNBCType train entry is on record as “MSL”.
For the compound `CN(C)C(=S)SC(=S)N(C)C` [tetramethylthiuram-monosulfide], the TNBCType train result is on record as “MSL”.

The same assay, now with this note: subtype (IM, MSL or M) with which compound sensitivity is negatively correlated; training cell set (371 cell lines), 101 gene signature.
`CCCCN1CCC(CNC(=O)c2c3n(c4ccccc24)CCCO3)CC1` [piboserod]: the TNBCType train result is on record as “MSL”.
Same read-out and setting: to `C[C@@H](c1nc(-c2ccc(C#N)cc2)cs1)[C@](O)(Cn1cncn1)c1ccc(F)cc1F` [ravuconazole] belongs “MSL”; to `C=C[C@](C)(O)CC[C@@H]1[C@@]2(C)CCCC(C)(C)[C@@H]2CC[C@@]1(C)O` [sclareol], “MSL”; to `Nc1ccc(S(N)(=O)=O)cc1` [sulfanilamide], “MSL”.
For the compound `COc1ccc2[nH]c([S+]([O-])Cc3ncc(C)c(OC)c3C)nc2n1` (stereo not shown) [tenatoprazole], the TNBCType train result is on record as “MSL”.

The assay is the same for the next values; noted with them: subtype (IM, MSL, M) with which compound sensitivity correlates; test set.
For the compound `O=c1[nH]c2ccccc2n1C1CCN(CCOc2ccccc2)CC1` [oxiperomide], the TNBCType test result is reported as “MSL/M”.
Regarding `C[C@]12CC[C@H](O)C[C@H]1CC[C@@H]1[C@@H]2CC[C@]2(C)[C@@H](c3ccc(=O)oc3)C[C@H]3O[C@]132` [resibufogenin], the TNBCType test entry is on record as “MSL”.

Still in this assay, the particulars now being: subtype (IM, MSL, M) with which compound sensitivity correlates; training set.
On to `C[C@]12CC[C@H](O)C[C@H]1CC[C@@H]1[C@@H]2CC[C@]2(C)[C@@H](c3ccc(=O)oc3)C[C@H]3O[C@]132` [resibufogenin], for which the TNBCType train result is “MSL”.
